pIC50: −log10 of the molar value.
How the values were obtained:
His-AKT (Full Length) = target: T1, His-AKT (Full Length) (Homo sapiens, UniProt P31749); assay: AKT enzyme assay; format: biochemical; settings: 160 uM ATP, 90 min at 25 C, off-chip mobility shift (Caliper)
T1 construct: His-AKT (Full Length); His; purchased Invitrogen P2999
Protocol: A TTP Mosquito liquid handling instrument was used to place 125 nl of the appropriate concentration of inhibitor in 100% DMSO (for a dose response curve calculation) into each well of a 384-well plate. To this reaction components were added to a final volume of 12.5 μl: • 0.1 ng/μ1 His-AKT (Full Length), (Invitrogen, Part # P2999, Lot #641228C). • 160 uM ATP (Fluka, 02055) • 1 mM DTT (Sigma, D0632) • 1 mM MgCl2 (Sigma, M1028) • 1 μM substrate peptide (sequence FITC-AHA-GRPRTSSFAEG-NH2), synthesized by Tufts Peptide Synthesis service. • 100 mM HEPES pH 7.5 (Calbiochem, 391338) • 0.015% Brij-35 (Sigma, B4184)
The reaction was incubated for 90 min at 25 C, and then stopped by the addition of 70 μl of Stop buffer (100 mM HEPES pH 7.5, 0.015% Brij-35, 10 mM EDTA (Sigma, E7889)).
The plate was read on a Caliper LC 3000 in an Off-Chip mobility shift assay format, using the following parameters for a 12-sipper chip: screening pressure—2.3 psi, upstream voltage—500, and downstream voltage—3000. These conditions cause unphosphorylated substrate and phosphorylated product peptide to resolve as separate peaks allowing direct measurement of percentage of conversion of substrate to product. The percent conversion was plotted against concentration of inhibitor to produce a sigmoidal dose response curve, from which an IC50 was calculated.

P70S6K (T412E mutant) = target: T2, P70S6K (T412E mutant) (Homo sapiens, UniProt P23443, T412E); assay: P70S6K enzyme assay; format: biochemical; settings: 24 μM ATP, 90 min at 25° C., mobility shift (Caliper)
T2 construct: purchased Millipore
Protocol: P70S6K inhibitor compounds were diluted and plated in 96 well plates. A reaction mixture including the following components was then added to the compound plate to initiate the enzyme reaction; P70S6K (3 nM, T412E mutant, Millipore) was mixed with 24 μM ATP in an assay buffer containing 100 mM Hepes (pH 7.5), 5 mM MgCl2, 1 mM DTT, 0.015% Brij and 1 μM of the substrate peptide FITC-AHA-AKRRRLSSLRA-OH (derived from the S6 ribosomal protein sequence, FITC=fluorescein isothiocyanate, AHA=6-aminohexanoic acid). The reaction was incubated for 90 min at 25° C., before the addition of 10 mM EDTA to stop the reaction. The proportion of substrate and product (phosphorylated) peptide was analysed on a Caliper Life Sciences Lab Chip 3000, using a pressure of −1.4 psi, and upstream and downstream voltages of −3000 and −700 respectively. Product peaks were resolved before substrate peaks on the resulting chromatograms.

T1 sequence (P31749 whole entry): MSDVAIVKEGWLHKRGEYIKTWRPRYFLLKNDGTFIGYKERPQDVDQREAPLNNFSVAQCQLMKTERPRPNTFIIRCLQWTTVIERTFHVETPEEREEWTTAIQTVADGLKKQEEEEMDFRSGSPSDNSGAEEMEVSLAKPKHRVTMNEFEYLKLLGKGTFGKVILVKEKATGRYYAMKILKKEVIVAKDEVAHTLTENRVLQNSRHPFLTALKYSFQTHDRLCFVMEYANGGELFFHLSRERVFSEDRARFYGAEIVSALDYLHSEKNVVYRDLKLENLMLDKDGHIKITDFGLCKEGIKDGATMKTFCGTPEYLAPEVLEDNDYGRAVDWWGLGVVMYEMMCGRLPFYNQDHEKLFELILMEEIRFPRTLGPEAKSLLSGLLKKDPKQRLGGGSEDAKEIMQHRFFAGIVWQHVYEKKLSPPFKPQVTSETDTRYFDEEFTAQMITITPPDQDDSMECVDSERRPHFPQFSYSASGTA
T2 sequence (P23443 whole entry T412E): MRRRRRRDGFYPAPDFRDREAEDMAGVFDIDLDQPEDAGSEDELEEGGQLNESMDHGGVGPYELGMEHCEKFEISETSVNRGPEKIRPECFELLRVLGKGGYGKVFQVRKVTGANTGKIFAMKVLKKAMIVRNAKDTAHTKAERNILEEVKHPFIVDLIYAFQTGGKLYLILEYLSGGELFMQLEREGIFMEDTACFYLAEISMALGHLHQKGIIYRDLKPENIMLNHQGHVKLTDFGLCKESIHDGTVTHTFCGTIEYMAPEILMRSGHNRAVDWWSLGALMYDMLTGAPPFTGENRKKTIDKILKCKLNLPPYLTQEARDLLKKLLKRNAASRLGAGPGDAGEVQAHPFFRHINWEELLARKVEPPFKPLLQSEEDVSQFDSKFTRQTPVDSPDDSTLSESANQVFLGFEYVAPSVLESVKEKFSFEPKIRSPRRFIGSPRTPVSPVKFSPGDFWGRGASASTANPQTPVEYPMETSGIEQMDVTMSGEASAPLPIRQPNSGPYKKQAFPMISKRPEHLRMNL

CC(C)c1cc(-c2cn(CCN3CCC3)c(C3CCN(c4ncnc(N)c4-c4ccccc4)CC3)n2)ccn1 [Compound 18, 6-{4-[1-(2-Azetidin-1-yl-ethyl)-4-(2-isopropyl-pyridin-4-yl)-1H-imidazol-2-yl]-piperidin-1-yl}-5-phenyl-pyrimidin-4-ylamine]
pIC50 (His-AKT (Full Length)): < 7.82
pIC50 (P70S6K (T412E mutant)): > 8.52

CN(C)CCn1cc(-c2ccnc(C(F)(F)F)c2)nc1C1CCN(c2ncnc(N)c2Cl)CC1 [Compound 24]
pIC50 (His-AKT (Full Length)): 7.82 to 8.52
pIC50 (P70S6K (T412E mutant)): > 8.52

CCOc1c(N)ncnc1N1CCC(c2nc(-c3ccnc(C(F)(F)F)c3)cn2CCN(C)C)CC1 [Compound 26]
pIC50 (His-AKT (Full Length)): 7.82 to 8.52
pIC50 (P70S6K (T412E mutant)): 7.82 to 8.52

CN(C)CCn1cc(-c2ccnc(C(F)(F)F)c2)nc1C1CCN(c2ncnc(N)c2C#N)CC1 [Compound 29]
pIC50 (His-AKT (Full Length)): 7.82 to 8.52
pIC50 (P70S6K (T412E mutant)): > 8.52

CC(C)c1cc(-c2cn(CCN3CCC3)c(C3CCN(c4ncnc(N)c4C=O)CC3)n2)ccn1 [Compound 15, 4-Amino-6-{4-[1-(2-azetidin-1-yl-ethyl)-4-(2-isopropyl-pyridin-4-yl)-1H-imidazol-2-yl]-piperidin-1-yl}-pyrimidine-5-carbaldehyde]
pIC50 (His-AKT (Full Length)): 7.82 to 8.52
pIC50 (P70S6K (T412E mutant)): > 8.52

Cc1cc(-c2cn(CCN3CCC3)c(C3CCN(c4ncnc(N)c4Cl)CC3)n2)ccc1F [Compound 2, 6-{4-[1-(2-Azetidin-1-yl-ethyl)-4-(4-fluoro-3-methyl-phenyl)-1H-imidazol-2-yl]-piperidin-1-yl}-5-chloro-pyrimidin-4-ylamine]
pIC50 (His-AKT (Full Length)): > 8.52
pIC50 (P70S6K (T412E mutant)): > 8.52

CCOc1c(N)ncnc1N1CCC(c2nc(-c3ccc(F)c(Cl)c3)cn2CCN(C)C)CC1 [Compound 20]
pIC50 (His-AKT (Full Length)): 7.82 to 8.52
pIC50 (P70S6K (T412E mutant)): > 8.52

CC(C)c1cc(-c2cn(CCN3CCC3)c(C3CCN(c4ncnc(N)c4C(C)C)CC3)n2)ccn1 [Compound 3, 6-{4-[1-(2-Azetidin-1-yl-ethyl)-4-(2-isopropyl-pyridin-4-yl)-1H-imidazol-2-yl]-piperidin-1-yl}-5-isopropyl-pyrimidin-4-ylamine]
pIC50 (His-AKT (Full Length)): 7.82 to 8.52
pIC50 (P70S6K (T412E mutant)): 7.82 to 8.52

Cc1cc(-c2cn(CCN3CCC3)c(C3CCN(c4ncnc(N)c4C4CC4)CC3)n2)ccc1F [Compound 16, 6-{4-[1-(2-Azetidin-1-yl-ethyl)-4-(4-fluoro-3-methyl-phenyl)-1H-imidazol-2-yl]-piperidin-1-yl}-5-cyclopropyl-pyrimidin-4-ylamine]
pIC50 (His-AKT (Full Length)): > 8.52
pIC50 (P70S6K (T412E mutant)): > 8.52

CN(C)CCn1cc(-c2ccnc(C(F)(F)F)c2)nc1C1CCN(c2ncnc(N)c2C(N)=O)CC1 [Compound 30]
pIC50 (His-AKT (Full Length)): < 7.82
pIC50 (P70S6K (T412E mutant)): < 7.82

CC(C)Oc1c(N)ncnc1N1CCC(c2nc(-c3ccnc(C(C)C)c3)cn2CCN2CCC2)CC1 [Compound 12, 6-{4-[1-(2-Azetidin-1-yl-ethyl)-4-(2-isopropyl-pyridin-4-yl)-1H-imidazol-2-yl]-piperidin-1-yl}-5-isopropoxy-pyrimidin-4-ylamine]
pIC50 (His-AKT (Full Length)): 7.82 to 8.52
pIC50 (P70S6K (T412E mutant)): 7.82 to 8.52

CC(C)c1cc(-c2cn(CCN3CCC3)c(C3CCN(c4ncnc(N)c4C4CC4)CC3)n2)ccn1 [Compound 17, 6-{4-[1-(2-Azetidin-1-yl-ethyl)-4-(2-isopropyl-pyridin-4-yl)-1H-imidazol-2-yl]-piperidin-1-yl}-5-cyclopropyl-pyrimidin-4-ylamine]
pIC50 (His-AKT (Full Length)): 7.82 to 8.52
pIC50 (P70S6K (T412E mutant)): 7.82 to 8.52

Cc1cc(-c2cn(CC3CN(C)C3)c(C3CCN(c4ncnc(N)c4Cl)CC3)n2)ccc1F [Compound 6, 5-Chloro-6-{4-[4-(4-fluoro-3-methyl-phenyl)-1-(1-methyl-azetidin-3-ylmethyl)-1H-imidazol-2-yl]-piperidin-1-yl}-pyrimidin-4-ylamine]
pIC50 (His-AKT (Full Length)): 7.82 to 8.52
pIC50 (P70S6K (T412E mutant)): 7.82 to 8.52

Cc1cc(-c2cn(CCN(C)C)c(C3CCN(c4ncnc(N)c4Br)CC3)n2)ccc1F [Compound 21]
pIC50 (His-AKT (Full Length)): > 8.52
pIC50 (P70S6K (T412E mutant)): > 8.52

CC(C)c1cc(-c2cn(CCN3CCC3)c(C3CCN(c4ncnc(N)c4-c4cccnc4)CC3)n2)ccn1 [Compound 19, 6-{4-[1-(2-Azetidin-1-yl-ethyl)-4-(2-isopropyl-pyridin-4-yl)-1H-imidazol-2-yl]-piperidin-1-yl}-5-Pyridin-3-yl-pyrimidin-4-ylamine]
pIC50 (His-AKT (Full Length)): < 7.82
pIC50 (P70S6K (T412E mutant)): 7.82 to 8.52

CCc1c(N)ncnc1N1CCC(c2nc(-c3ccnc(C(F)(F)F)c3)cn2CCN(C)C)CC1 [Compound 27]
pIC50 (His-AKT (Full Length)): < 7.82
pIC50 (P70S6K (T412E mutant)): 7.82 to 8.52

CCNCCn1cc(-c2ccc(F)c(C(F)(F)F)c2)nc1C1CCN(c2ncnc(N)c2C(C)C)CC1 [Compound 31, 6-{4-[1-(2-Ethylamino-ethyl)-4-(4-fluoro-3-trifluoromethyl-phenyl)-1H-imidazol-2-yl]-piperidin-1-yl}-5-isopropyl-pyrimidin-4-ylamine]
pIC50 (His-AKT (Full Length)): 7.82 to 8.52
pIC50 (P70S6K (T412E mutant)): 7.82 to 8.52

CC(C)Oc1c(N)ncnc1N1CCC(c2nc(-c3ccnc(C(F)(F)F)c3)cn2CCN(C)C)CC1 [Compound 28]
pIC50 (His-AKT (Full Length)): 7.82 to 8.52
pIC50 (P70S6K (T412E mutant)): 7.82 to 8.52

CN(C)CCn1cc(-c2ccnc(C(F)(F)F)c2)nc1C1CCN(c2ncnc(N)c2Br)CC1 [Compound 25]
pIC50 (His-AKT (Full Length)): > 8.52
pIC50 (P70S6K (T412E mutant)): > 8.52

Cc1cc(-c2cn(CCN3CCC3)c(C3CCN(c4ncnc(N)c4-c4cccnc4)CC3)n2)ccc1F [Compound 9, 6-{4-[1-(2-Azetidin-1-yl-ethyl)-4-(4-fluoro-3-methyl-phenyl)-1H-imidazol-2-yl]-piperidin-1-yl}-5-pyridin-3-yl-pyrimidin-4-ylamine]
pIC50 (His-AKT (Full Length)): 7.82 to 8.52
pIC50 (P70S6K (T412E mutant)): 7.82 to 8.52

CC(C)c1cc(-c2cn(CCN3CCC3)c(C3CCN(c4ncnc(N)c4C4CCC4)CC3)n2)ccn1 [Compound 11, 6-{4-[1-(2-Azetidin-1-yl-ethyl)-4-(2-isopropyl-pyridin-4-yl)-1H-imidazol-2-yl]-piperidin-1-yl}-5-cyclobutyl-pyrimidin-4-ylamine]
pIC50 (His-AKT (Full Length)): > 8.52
pIC50 (P70S6K (T412E mutant)): 7.82 to 8.52

CCOc1c(N)ncnc1N1CCC(c2nc(-c3ccnc(C(C)C)c3)cn2CCN2CCC2)CC1 [Compound 10, 6-{4-[1-(2-Azetidin-1-yl-ethyl)-4-(2-isopropyl-pyridin-4-yl)-1H-imidazol-2-yl]-piperidin-1-yl}-5-ethoxy-pyrimidin-4-ylamine]
pIC50 (His-AKT (Full Length)): 7.82 to 8.52
pIC50 (P70S6K (T412E mutant)): 7.82 to 8.52

Cc1cc(-c2cn(CCN3CCC3)c(C3CCN(c4ncnc(N)c4-c4ccn[nH]4)CC3)n2)ccc1F [Compound 7, 6-{4-[1-(2-Azetidin-1-yl-ethyl)-4-(4-fluoro-3-methyl-phenyl)-1H-imidazol-2-yl]-piperidin-1-yl}-5-(2H-pyrazol-3-yl)-pyrimidin-4-ylamine]
pIC50 (His-AKT (Full Length)): 7.82 to 8.52
pIC50 (P70S6K (T412E mutant)): 7.82 to 8.52

CC(C)c1cc(-c2cn(CCN3CCC3)c(C3CCN(c4ncnc(N)c4OCC(F)(F)F)CC3)n2)ccn1 [Compound 14, 6-{4-[1-(2-Azetidin-1-yl-ethyl)-4-(2-isopropyl-pyridin-4-yl)-1H-imidazol-2-yl}-piperidin-1-yl]-5-(2,2,2-trifluoro-ethoxy)-Pyrimidin-4-ylamine]
pIC50 (His-AKT (Full Length)): 7.82 to 8.52
pIC50 (P70S6K (T412E mutant)): 7.82 to 8.52

Cc1cc(-c2cn(CCN3CCC3)c(C3CCN(c4ncnc(N)c4C(C)C)CC3)n2)ccc1F [Compound 4, 6-{4-[1-(2-Azetidin-1-yl-ethyl)-4-(4-fluoro-3-methyl-phenyl)-1H-imidazol-2-yl]-piperidin-1-yl}-5-isopropyl-pyrimidin-4-ylamine]
pIC50 (His-AKT (Full Length)): 7.82 to 8.52
pIC50 (P70S6K (T412E mutant)): 7.82 to 8.52

CC(C)c1c(N)ncnc1N1CCC(c2nc(-c3ccnc(C(F)(F)F)c3)cn2CCN2CCC2)CC1 [Compound 5, 6-{4-[1-(2-Azetidin-1-yl-ethyl)-4-(2-trifluoromethyl-pyridin-4-yl)-1H-imidazol-2-yl]-piperidin-1-yl}-5-isopropyl-pyrimidin-4-ylamine]
pIC50 (His-AKT (Full Length)): 7.82 to 8.52
pIC50 (P70S6K (T412E mutant)): > 8.52

Cc1cc(-c2cn(CCNCCCCl)c(C3CCN(c4ncnc(N)c4C(C)C)CC3)n2)ccc1F [Compound 32, 6-{4-[1-[2-(3-Chloro-propylamino)-ethyl]-4-(4-fluoro-3-methyl-phenyl)-1H-imidazol-2-yl]-piperidin-1-yl}-5-isopropyl-pyrimidin-4-ylamine]
pIC50 (His-AKT (Full Length)): 7.82 to 8.52
pIC50 (P70S6K (T412E mutant)): > 8.52

Cc1cc(-c2cn(CCN(C)C)c(C3CCN(c4ncnc(N)c4Cl)CC3)n2)ccc1F [Compound 22]
pIC50 (His-AKT (Full Length)): > 8.52
pIC50 (P70S6K (T412E mutant)): > 8.52

Source: patent US9434714B2, “Pyrimidine imidazole amines as modulators of kinase activity” (Merck Patent GmbH, priority 2014, dated 2016)
